Measured values as given in patent US20250144227A1, “C-16 MODIFIED TRIOXACARCINS, ANTIBODY DRUG CONJUGATES, AND USES THEREOF” (President and Fellows of Harvard College, priority 2021, published 2025).
Like-named read-outs stand apart in the source and are kept apart here. One block for each compound: values may come before it.

What was measured:
MES-SA/Dx-5 cells = test: Cell proliferation assay (resazurin, CellTiter-Blue), MES-SA/Dx-5 cells; assay type: cell-based; details: Homo sapiens
Description: (§1) Cell Culture: All cell-culture work was conducted in a class II biological safety cabinet. H460 cells (P2-P4, American Type Culture Collection) were maintained in RPMI-1640 medium supplemented with 10% fetal bovine serum (FBS). HL-60 cells (P2-P4, American Type Cuture Collection) were maintained in RPMI-1640 medium supplemented with 10% FBS. MES-SA/Dx-5 cells (P2-P4, European Collection of Authenticated Cell Cultures) were maintained in McCoy's 5A medium supplemented with 10% FBS.
(§2) Cell Proliferation Assay: H460 and MES-SA/Dx-5 cells were grown to approximately 80% confluence, and then were trpysinized, collected, and pelleted by centrifugation (10 min at 183 x g, 24° C.), and HL-60 cells were grown to confluence and directly pelleted by centrifugation (10 min at 183 × g, 24° C.). The supernatant was discarded and the cell pellet was resuspended in 10 mL of fresh medium. A sample was diluted 10-fold in fresh medium, and the concentration of cells was determined using a hemacytometer. The cell suspension was diluted to a concentration of 3000 cells/100 μL. The wells of a pre-sterilized 96-well plate were charged with 100 μL per well of the diluted cellular suspension. The plate was incubated for 24 h at 37° C. (5% CO2).
(§3) Stock solutions of each compound in DMSO were diluted with the appropriate media to 100 nM solutions (1% DMSO), which were then serially diluted with the appropriate media, and 100-uL aliquots of the resulting solutions were added to the wells containing adhered cells to achieve final concentrations of 0.39 nM to 50 nM. After incubating at 37° C. for 72 h (5% CO2), 20 μL of resazurin solution (Promega CellTiter-Blue® Cell Viability Assay) was added to each well. After incubating at 37° C. for 2.0 h (5% CO2), the fluorescence (544 nm excitation/590 nm emission) was recorded using a microplate reader (SpectraMax PLUS384) as a measure of viable cells.
(§4) Percent growth inhibition was calculated for each well, based upon the following formula: Percent growth inhibition=100×(S−B0)/(Bt−B0) where S is the sample fluorescence, Bt is the average fluorescence of an untreated population of cells at the completion of the assay, and B0 is the average fluorescence of an untreated population of cells at the beginning of the assay.
(§5) Each compound was assayed at eight separate concentrations per experiment. The percent inhibition at each concentration was plotted against log (concentration), and a curve fit was generated using the XLfit4 plugin (IDBS Software) running in Excel (Microsoft). GI50 values were computed to reflect the concentrations at which the resulting curves pass through 50% inhibition.

[1] = Drug-linker stability assay (LC-MS); assay type: physicochemical; details: after 1 week, physiologically relevant pH and temperature (37 C)
Description: Stability Assay: In a 1.5 mL screw-top conical plastic vial, 42 (FIG. 1A) or 39 (FIG. 1B) was dissolved in 270 μL of DMSO (5 mM). 12 μL of this DMSO drug-linker solution was mixed with 576 μL pH 5.0 sodium acetate buffer (50 mM sodium acetate, 100 mM NaCl, 4 mM EDTA). 1-naphthalene acetic acid in DMSO (12 μL, 5 mM, 1 equiv.) was added as an internal standard. The vial was then placed in a heating block at 37 C and protected from direct light. 25 μL aliquots of the reaction mixture were removed at 0 h, 4 h, 24 h, 48 h, 72 h, and 1 week and analyzed by LC-MS. LC-MS peaks were integrated using Agilent OpenLab ChemStation and the areas of each peak were normalized to 1-napthalene acetic acid at 280 nM. Percent drug-linker remaining is defined as the normalized peak area at a given time point divided by the normalized peak area at 0 hours x 100%. Each assay was also performed at pH 7.4 (phosphate-buffered solution, Corning), and assays at each pH value were performed with and without the addition of 8 mM N-acetylcysteine.

cathepsin B = target: T1, cathepsin B (Homo sapiens, UniProt P07858); test: Drug-linker release assay with cathepsin B (LC-MS); assay type: in vitro ADME; details: cathepsin B enzyme solution in buffer; cathepsin B added, pH 5.0 sodium acetate buffer, 37 C; read-out: Half-life of liberation of the C16 primary amine warhead
T1 construct: purchased Enzo Life Sciences
Description: Release Assay: In a 1.5 mL screw-top conical plastic vial, 42 was dissolved in 270 μL of DMSO (5 mM). 12 μL of this DMSO drug-linker solution was mixed with a DMSO solution of N-acetylcysteine (10 mM, 12 μL, 2 equiv.). To the solution was then added 510 μL pH 5.0 sodium acetate buffer (50 mM sodium acetate, 100 mM NaCl, 4 mM EDTA, 8 mM N-acetylcysteine). 1—Naphthalene acetic acid in DMSO (12 μL, 5 mM, 1 equiv.) was added as an internal standard. The vial was then placed in a heating block at 37 C for 30 minutes. After 30 minutes, 54 μL of cathepsin B solution (379 U/mL, Enzo Life Sciences) was added. The vial was returned to the heating block at 37 C and protected from direct light. 25 μL aliquots of the reaction mixture were removed at 0 min, 20 min, 40 min, 60 min, 120 min, and 180 min and analyzed by LC-MS. LC-MS peaks were integrated using Agilent OpenLab ChemStation and the areas of each peak were normalized to 1-napthalene acetic acid at 280 nM. Percent drug-linker remaining is defined as the normalized peak area at a given time point divided by the normalized peak area at 0 hours×100% (FIG. 2A). A similar procedure was used for the release assay of 39, using glucuronidase instead of cathepsin B (FIG. 2B).

[2] = test system: Ramos cells (B lymphocyte cells); test: Growth inhibition of Ramos cells; assay type: cell-based; details: Homo sapiens
Description: as §3, §4, §5

H460 cells = test: Cell proliferation assay (resazurin, CellTiter-Blue), H460 cells; assay type: cell-based; details: for GI50: Homo sapiens, NCI-H460, 72 h; for Effect of the C16 modification on potency (in words): comment on the data of Table 2 (H460 cells)
Description: as §1, §2, §3, §4, §5

[3] = 1H NMR studies of decomposition of the C16 thiol; assay type: physicochemical; details: on an hour time scale
[4] = patients with metastatic cancer; only problematic at doses beyond those which affected tumor volume decrease; cited from earlier work
[5] = MES-SA/Dx5, MES-SA/Dx-5 cells, 72 h incubation, read-out: GI50

Compound: CCCOCC12OC3c4c(C)cc5c(OC)c6c(c(O)c5c4O[C@](OC)(C3O1)[C@@]21CO1)C(=O)CCC6 (stereo partly drawn) [TP-5]
GI50 (MES-SA/Dx-5 cells; [5]): 0.025 µM

Compound: C=CCOCC12OC3c4c(C)cc5c(OC)c6c(c(O)c5c4O[C@](OC)(C3O1)[C@@]21CO1)C(=O)CCC6 (stereo partly drawn) [TP-6]
GI50 (MES-SA/Dx-5 cells; [5]): 0.017 µM

Compound: COc1c2c(c(O)c3c4c(c(C)cc13)[C@H]1O[C@]3(CNC(=O)OCc5ccc(NC(=O)[C@H](C)NC(=O)[C@@H](NC(=O)CCOCCOCCOCCOCCN6C(=O)C=CC6=O)C(C)C)cc5)O[C@@H]1C(OC)(O4)[C@@]31CO1)C(=O)CCC2 (stereo partly drawn) [compound 42, 4-((17S,20S)-1-(2,5-dioxo-2,5-dihydro-1H-pyrrol-1-yl)-17-isopropyl-20-methyl-15,18-dioxo-3,6,9,12-tetraoxa-16,19-diazahenicosan-21-amido)benzyl (((2R,2′R,3a'S,4′R)-12′-hydroxy-7′,13a′-dimethoxy-5′-methyl-11′-oxo-3a′,8′,9′,10′, 11′, 13a′-hexahydro-2′H,4′H-spiro [oxirane-2,1′-[2,4]epoxyfuro[3,2-b]naphtho[2,3-h]chromen]-2′-yl)methyl)carbamate]
Percent drug-linker remaining [1]: 75%
half-life at 100 µM (cathepsin B): ~15 min

Compound: COc1c2c(c(O)c3c4c(c(C)cc13)C1OC3(CO)OC1[C@@](OC)(O4)[C@@]31CO1)C(=O)CCC2 (stereo partly drawn) [TP-1]
GI50 (MES-SA/Dx-5 cells; MES-SA/Dx5, 72 h): 0.008 µM

GI50 [2]: 0.02 ± 0.005 µM
Compound: COc1c2c(c(O)c3c4c(c(C)cc13)C1OC3(C)OC1[C@@](OC)(O4)[C@@]31CO1)C(=O)CCC2 (stereo partly drawn) [compound 45, (2R,2′R,3a'S,4'S)-12′-hydroxy-7′,13a′-dimethoxy-2′,5′-dimethyl-3a′ 4′,8′,9′,10′,13a′-hexahydro-2′H,11′H-spiro [oxirane-2,1′-[2,4]epoxyfuro[3,2-b]naphtho[2,3-h]chromen]-11′-one]

GI50 [2]: 0.0026 ± 0.0008 µM
Compound: COCC12OC3c4c(C)cc5c(OC)c6c(c(O)c5c4O[C@](OC)(C3O1)[C@@]21CO1)C(=O)CCC6 (stereo partly drawn) [compound 43, (2R,2′R,3a′R,4'S, 13a′R)-12′-hydroxy-7′, 13a′-dimethoxy-2′-(methoxymethyl)-5′-methyl-3a′ 4′,8′,9′,10′,13a′-hexahydro-2′H, 11′H-spiro[oxirane-2,1′-[2,4]epoxyfuro[3,2-b]naphtho[2,3-h]chromen]-11′-one]

Compound: C#CCOCC12OC3c4c(C)cc5c(OC)c6c(c(O)c5c4O[C@](OC)(C3O1)[C@@]21CO1)C(=O)CCC6 (stereo partly drawn) [TP-7]
GI50 (MES-SA/Dx-5 cells; MES-SA/Dx5, 72 h): 0.015 µM

Compound: COc1c2c(c(O)c3c4c(c(C)cc13)C1OC3(CN=[N+]=[N-])OC1[C@@](OC)(O4)[C@@]31CO1)C(=O)CCC2 (stereo partly drawn) [TP-9]
GI50 (MES-SA/Dx-5 cells; MES-SA/Dx5, 72 h): 0.033 µM

Compound: COc1c2c(c(O)c3c4c(c(C)cc13)C1OC3(COC5CC(C)(O)C(OC(C)=O)C(C)O5)OC1[C@@](OC)(O4)[C@@]31CO1)C(=O)CCC2 (stereo partly drawn) [TP-12]
GI50 (MES-SA/Dx-5 cells; MES-SA/Dx5, 72 h): 0.05 µM

Compound: COc1c2c(c(O)c3c4c(c(C)cc13)[C@@H]1O[C@]3(CNC(=O)OCc5ccc(O[C@@H]6O[C@H](C(=O)O)[C@@H](O)[C@H](O)[C@H]6O)c(-n6cc(COCCOCCOCCOCCN7C(=O)C=CC7=O)nn6)c5)O[C@H]1[C@@](OC)(O4)[C@@]31CO1)C(=O)CCC2 [compound 39, (2S,3S,4S,5R,6S)-6-(2-(4-(13-(2,5-Dioxo-2,5-dihydro-1H-pyrrol-1-yl)-2,5,8,11-tetraoxatridecyl)-1H-1,2,3-triazol-1-yl)-4-((((((2R,2′R,3a′R,4'S,13a′R)-12′-hydroxy-7′,13a′-dimethoxy-5′-methyl-11′-oxo-3a′,8′,9′,10′,11′,13a′-hexahydro-2′H, 4′H-spiro [oxirane-2,1′-[2.4]epoxyfuro[3,2-b]naphtho[2,3-h]chromen]-2′-yl)methyl)carbamoyl)oxy)methyl)phenoxy)-3,4,5-trihydroxytetrahydro-2H-pyran-2-carboxylic acid]
Percent drug-linker remaining [1]: 75%

Compound: COc1c2c(c(O)c3c4c(c(C)cc13)C1OC3(CS)OC1[C@@](OC)(O4)[C@@]31CO1)C(=O)CCC2 (stereo partly drawn) [compound 34, (25,2'S,3a′R,13a′R)-12′-hydroxy-2′-(mercaptomethyl)-7′,13a′-dimethoxy-5′-methyl-3a′, 4′,8′,9′,10′,13a′-hexahydro-2′H,11′H-spiro [oxirane-2,1′-[2,4]epoxyfuro[3,2-b]naphtho[2,3-h]chromen]-11′-one]
GI50 (H460 cells): > 0.1 µM
Effect of the C16 modification on potency (in words) (H460 cells): lack of activity
Decomposition of the unprotected thiol [3]: rapid, non-productive, decomposition pathway

Compound: COc1c2c(c(O)c3c4c(c(C)cc13)C1OC3(COCc5ccccc5)OC1[C@@](O)(O4)[C@@]31CO1)C(=O)CCC2 (stereo partly drawn) [TP-4]
GI50 (MES-SA/Dx-5 cells; [5]): > 0.1 µM

Compound: LL-D49194a1
Dose-limiting toxicity [4]: pancarditis was the only significant dose-limiting toxicity

Compound: COc1c2c(c(O)c3c4c(c(C)cc13)C1OC3(CO[C@@H]5O[C@H](COC(C)=O)[C@@H](OC(C)=O)[C@H](OC(C)=O)[C@H]5OC(C)=O)OC1[C@@](OC)(O4)[C@@]31CO1)C(=O)CCC2 (stereo partly drawn) [compound 28, (2R,3R,4S,5R,6R)-2-(Acetoxymethyl)-6-(((2R,13a′R)-12′-hydroxy-7′,13a′-dimethoxy-5′-methyl-11′-oxo-3a′,8′,9′,10′,11′,13a′-hexahydro-2′H,4′H-spiro [oxirane-2,1′-[2,4]epoxyfuro[3,2-b]naphtho[2,3-h]chromen]-2′-yl)methoxy) tetrahydro-2H-pyran-3,4,5-triyl triacetate]
GI50 (H460 cells): > 0.1 µM
Effect of the C16 modification on potency (in words) (H460 cells): poorly tolerated
